From ChEMBL document CHEMBL5247607, “Design, synthesis and biological evaluation of a new series of arylidene indanones as small molecules for targeted therapy of non-small cell lung carcinoma and prostate cancer” (Eur J Med Chem, 2022)
pIC50: −log10 of the molar value. Activity calls are given as the source filed them. The calls are words filed in the database; no cut-off is given here.

Experiments:
[1] = tested on: PANC-1; assay: Cytotoxicity against human PANC-1 cells assessed as inhibition of cell growth incubated for 24 hrs by MTT assay; format: functional, cell-based; conditions: PANC-1, 24 h
[2] = Selectivity index, ratio of IC50 for cytotoxicity against human hTERT-HPNE cells to IC50 for cytotoxicity against human PANC-1 cells; format: toxicity, cell-based; conditions: hTERT-HPNE cells versus PANC-1 cells, read-out: Ratio IC50
[3] = tested on: A549; assay: Cytotoxicity against human A549 cells assessed as inhibition of cell growth incubated for 24 hrs by MTT assay; format: functional, cell-based; conditions: A549, 24 h
[4] = Cytotoxicity against human CCD 19Lu cells assessed as inhibition of cell growth incubated for 24 hrs by MTT assay; format: toxicity, cell-based
[5] = target: Cathepsin D (Homo sapiens) (UniProt P07339); assay: Inhibition of cathepsin D (unknown origin) at 100 uM relative to control
[6] = target: Procathepsin L (Homo sapiens) (UniProt P07711); assay: Inhibition of cathepsin L (unknown origin) at 100 uM
[7] = Cytotoxicity against human hTERT-HPNE cells assessed as inhibition of cell growth incubated for 24 hrs by MTT assay; format: toxicity, cell-based
[8] = Selectivity index, ratio of IC50 for cytotoxicity against human CCD 19Lu cells to IC50 for cytotoxicity against human A549 cells; format: toxicity, cell-based; conditions: CCD 19Lu cells versus A549 cells, read-out: Ratio IC50
[9] = target: Cathepsin D (Homo sapiens) (UniProt P07339); assay: Inhibition of cathepsin D (unknown origin) at 100 uM
[10] = tested on: PANC-1; assay: Induction of morphological changes in human PANC-1 cells assessed as chromatin condensation at 13.58 uM incubated for 24 hrs by acridine orange/ethidium bromide staining based fluorescence microscopic analysis; format: functional, cell-based
[11] = tested on: PANC-1; assay: Induction of morphological changes in human PANC-1 cells assessed as formation of apoptotic bodies at 13.58 uM incubated for 24 hrs by acridine orange/ethidium bromide staining based fluorescence microscopic analysis; format: functional, cell-based
[12] = tested on: PANC-1; assay: Induction of apoptosis in human PANC-1 cells assessed as total cell viability at IC50 incubated for 24 hrs by annexin V-FITC/PI staining based flow cytometry analysis (reference value: 84.4%); format: functional
[13] = tested on: PANC-1; assay: Induction of apoptosis in human PANC-1 cells assessed as late apoptotic cells at IC50 incubated for 24 hrs by annexin V-FITC/PI staining based flow cytometry analysis (reference value: 0.2%); format: functional
[14] = tested on: PANC-1; assay: Induction of apoptosis in human PANC-1 cells assessed as activation of caspase-3 by measuring caspase-3 negative cells at IC50 incubated for 24 hrs by flow cytometry analysis (reference value: 98.5 %); format: functional
[15] = tested on: PANC-1; assay: Induction of apoptosis in human PANC-1 cells assessed as activation of caspase-3 by measuring caspase-3 positive cells at IC50 incubated for 24 hrs by flow cytometry analysis (reference value: 1.8%); format: functional
[16] = tested on: PANC-1; assay: Induction of apoptosis in human PANC-1 cells assessed as early apoptotic cells at IC50 incubated for 24 hrs by annexin V-FITC/PI staining based flow cytometry analysis (reference value: 0%); format: functional
[17] = tested on: PANC-1; assay: Induction of morphological changes in human PANC-1 cells assessed as cell shrinkage at 13.58 uM incubated for 24 hrs by acridine orange/ethidium bromide staining based fluorescence microscopic analysis; format: functional
[18] = tested on: PANC-1; assay: Inhibition of DNA synthesis in human PANC-1 cells at IC50/4 to IC50 concentration incubated for 24 hrs by BrdU incorporation assay; format: functional, cell-based
[19] = tested on: PANC-1; assay: Induction of mitochondrial membrane potential loss in human PANC-1 cells assessed as depolarized cells at IC50 incubated for 24 hrs by JC-1 staining based flow cytometry assay (reference value: 5%); format: functional
[20] = tested on: PANC-1; assay: Induction of mitochondrial membrane potential loss in human PANC-1 cells assessed as polarized cells at IC50 incubated for 24 hrs by JC-1 staining based flow cytometry assay (reference value: 92%); format: functional
[21] = tested on: PANC-1; assay: Potency index, ratio of cisplatin IC50 for test compound IC50 for cytotoxicity against human PANC-1 cells assessed as inhibition of cell growth incubated for 24 hrs by MTT assay; format: functional

Sequence of Procathepsin L (Homo sapiens) (P07711 114-333 limits assumed): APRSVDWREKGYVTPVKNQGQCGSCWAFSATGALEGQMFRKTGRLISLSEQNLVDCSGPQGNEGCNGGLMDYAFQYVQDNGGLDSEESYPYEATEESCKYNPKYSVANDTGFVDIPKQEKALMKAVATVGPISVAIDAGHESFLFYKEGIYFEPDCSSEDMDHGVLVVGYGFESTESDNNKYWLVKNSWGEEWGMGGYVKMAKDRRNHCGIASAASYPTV
Sequence of Cathepsin D (Homo sapiens) (P07339 65-162 limits assumed): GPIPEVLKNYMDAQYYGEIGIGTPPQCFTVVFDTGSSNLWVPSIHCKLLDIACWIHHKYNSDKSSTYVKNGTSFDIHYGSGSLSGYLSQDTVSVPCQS
Sequence of Cathepsin D (Homo sapiens) (P07339 169-412 limits assumed): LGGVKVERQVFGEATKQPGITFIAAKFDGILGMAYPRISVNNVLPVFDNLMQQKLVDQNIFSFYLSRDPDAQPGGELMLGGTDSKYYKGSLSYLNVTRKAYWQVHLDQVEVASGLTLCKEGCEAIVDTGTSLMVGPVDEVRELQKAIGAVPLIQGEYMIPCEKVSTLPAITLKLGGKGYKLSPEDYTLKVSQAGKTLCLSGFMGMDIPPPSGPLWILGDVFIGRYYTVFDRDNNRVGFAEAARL

inhibition [5] [%]	inhibition [6]	inhibition [9]	SMILES	pIC50 [1]	selectivity ratio [2]	pIC50 [3]	IC50 at 24 h [4] [µM]	IC50 at 24 h [7] [µM]	selectivity ratio [8]	further results
39.1	inactive		O=C1/C(=C/c2ccc(N3CCCCC3)cc2)Cc2cc3c(cc21)OCO3	3.44	3.28	4.79	< 11.2	1180		
	inactive	inactive	CC(=O)Nc1ccc(/C=C2\Cc3cc4c(cc3C2=O)OCO4)cc1	3.80		3.94	> 1560	57	> 13.5	
26	inactive		CN1CCN(c2ccc(/C=C3\Cc4cc5c(cc4C3=O)OCO5)cc2)CC1	3.81	> 8.82	4.24	> 1380	> 1380	> 23.8	
	inactive	inactive	O=C1/C(=C/c2ccc(-n3cncn3)cc2)Cc2cc3c(cc21)OCO3	4.87	> 111	4.19	> 1510	> 1510	> 23.3	Activity [10]: Active; Activity [11]: Active; Activity [12]: 94%; Activity [13]: 0.4%; Activity [14]: 93.5%; Activity [15]: 9.1%; Activity [16]: 0.1%; Activity [17]: Active; inhibition [18]: inactive; Activity [19]: 58.6%; Activity [20]: 29.5%; Ratio IC50 [21]: 3
